Assay results: patent US20200276186A1, “USE OF […] TREATING COCAINE ADDICTION, PRURITIS, AND SEIZURE DISORDERS” (PHOENIX […], INC., priority 2017, published 2020)

System: patient with atopic dermatitis
Assay: Topical treatment of itching in atopic dermatitis
Format: in vivo
Conditions: human, indomethacin cream 7.5 mg/g at 75 μg/cm^2
Description: An aqueous solution (10-100 μg/ml) of a compound of Formula (I) is applied topically to the skin lesions on the arms or legs of a patient with atopic dermatitis which had caused severe itching (ranked as “+++” by the patient prior to treatment). The drug solution is applied on five spots with a volume of about 50 μl per 10 cm^2, which was equivalent to a topical dose of […]. As a control, indomethacin cream (concentration of 7.5 mg/g) applied at a dose of 75 μg/cm^2 in the same manner. Itching intensity is evaluated immediately after treatment, 5 minutes after treatment and at hourly time points for several hours following treatment. […] Itch relief typically continues for several hours following treatment.

SMILES: COc1ccc2c(c1)c(CC(=O)O)c(C)n2C(=O)c1ccc(Cl)cc1 [indomethecin, indomethacin]
- Effect on itch (control): reduces but fails to eliminate itch
